# Measurements taken from patent publication US20220409573A1, “Hippocampus Regeneration And Memory Recovery” (INNOBIOSCIENCE, LLC, priority 2021, published 2022).
# What was measured:
# [1] = test system: AT8-positive neurons in APPswe/PS-1 mice; assay: AT8 immunohistochemistry in treated APPswe/PS-1 mice; type: in vivo
# Wnt target genes = assay: PCR array of Wnt target genes in hippocampal neurons; type: cell-based, rat
# Experimental: Primary culture of rat hippocampal neurons. […] PCR-ARRAY. RNA from hippocampal neurons was extracted using Trizol. Quantification and purity of RNA preparations were checked by absorbance using Nanodrop ND-2000. Only preparations with a 260/280 nm ratio≥1.8, a 260/230 nm ratio ≥1,7 and no sign of RNA degradations, verified by agarose gel electrophoresis with Gel Red TM were used. Genomic DNA was degraded. Using RT2First-Strand cDNA Synthesis kit (SuperArray), 1 μg total RNA was reverse transcribed and then real-time PCR was performed by adding cDNA directly to PCR Master Mix, containing SYBR Green and ROX. The mixtures were then aliquoted into a 96-well PCR array plates, which profiles the expression of 84 Wnt target genes from rat. The PCR was run on ABI StepOnePlus, with 1 cycle of 10 min at 95° C. followed by 40 cycles of 15 s at 95° C. and 1 min at 60° C.
# (§1) Treatment of neuronal cultures. Primary hippocampal cultures of neurons 14 DIV were washed twice in neurobasal medium and maintained for 1 hour.
# [2] = test system: Wnt/β-catenin pathway in hippocampal neurons; assay: Wnt/β-catenin pathway activation in cultured hippocampal neurons (western blot, immunofluorescence); type: cell-based, rat
# Experimental: Primary culture of rat hippocampal neurons. Rat hippocampal cultures were prepared as previously described (Arrazola et al, 2009). On day 3 of culture, hippocampal cells were treated with […] 1-b-Darabinofuranosylcytosine (AraC) during 24 h to reduce the number of proliferating non-neuronal cells. […] PCR-ARRAY. RNA from hippocampal neurons was extracted using Trizol. Quantification and purity of RNA preparations were checked by absorbance using Nanodrop ND-2000. Only preparations with a 260/280 nm ratio≥1.8, a 260/230 nm ratio ≥1,7 and no sign of RNA degradations, verified by agarose gel electrophoresis with Gel Red TM were used. Genomic DNA was degraded. Using RT2First-Strand cDNA Synthesis kit (SuperArray), 1 μg total RNA was reverse transcribed and then real-time PCR was performed by adding cDNA directly to PCR Master Mix, containing SYBR Green and ROX. The mixtures were then aliquoted into a 96-well PCR array plates, which profiles the expression of 84 Wnt target genes from rat. The PCR was run on ABI StepOnePlus, with 1 cycle of 10 min at 95° C. followed by 40 cycles of 15 s at 95° C. and 1 min at 60° C. Cycle threshold (Ct) values were calculated for all the genes present on the array (Schmittgen & Livak, 2008).
# as §1
# Nuclear and cytoplasmatic extraction. Following a time-course treatment, neurons were washed with cold PBS and harvested in 600 μL of cold homogenization buffer (10 mM HEPES pH 7,9; 1,5 mM MgCl2; 10 mM KCl; 1 mM DTT). The cells were disrupted by 20 passed, back and forth, through a syringe of 1 mL. Lysates were centrifuged for 6 minutes at 700 g at 4° C. and the supernatant was removed. The precipitate was washed in 100 μL of buffer (20 mM HEPES pH=7,9; 420 mM NaCl; 1,5 mM MgCl2; 0,2 mM EDTA; 1 mM DTT; 25% glicerol) and centrifuged again to generate nuclear fraction. Cytosolic fractions were generated from the supernatantat 100.000 g for 1 h at 4° C. Both buffers were supplemented with protease inhibitors and serine-phosphatase. Nuclear and cytosolic fractions were subsequently subjected to western blotting.
# Immunoblotting. The samples were dissected on ice and immediately frozen in liquid nitrogen or processed has previously detailed (Inestrosa et al, 2011). Briefly, tissues were homogenized in RIPA buffer (10 mM Tris-Cl, pH 7.4, EDTA 5 mM, 1% NP-40, 1% sodium deoxycholate, and 1% SDS) supplemented with a protease inhibitor mixture (1 mM PMSF, 2 μg/mL aprotinin, 1 μg/mL pepstatin and 10 μg/mL benzamidine) and phosphatase inhibitors (25 mMNaF, 100 mM Na3VO4, 1 mM EDTA and 30 μM Na4P207) using a Potter homogenizator and then passed sequentially through different caliber syringes. Protein samples were centrifuged at 14000 rpm at 4° C. twice for 15 min. Protein concentration was determined using the BCA Protein Assay Kit (Pierce). Samples were resolved by […] 10% SDS-PAGE and transferred to a PVDF membrane. The reactions were followed by incubation with anti-mouse, anti-goat or anti-rabbit IgG peroxidase conjugated (Pierce, Rockford, Ill.) and developed using an ECL kit (Western Lightning Plus ECL, PerkinElmer).
# Immunofluorescence. Hippocampal neurons were seeded onto poly-L-lysine-coated cover slips in 24-well culture plates at a density of 5×10^4 cellsper well, as described previously (Arrazola et al, 2009; Chacon et al, 2008). A mouse monoclonal anti-b-catenin was used. Cells were extensively washed with PBS and then incubated with Alexa 488-conjugated anti-mouse IgG for 1 h at room temperature. Cells were mounted in mounting medium and analyzed in a Carl-Zeiss Confocal Laser Microscope.
# [3] = test system: APPswe/PS-1 double transgenic mice; assay: Classical Morris Water Maze test; type: in vivo; details: 12 month-old APPswe/PS-1 mice, 2.0 mg/kg IP three times per week, four weeks, vs Tg control
# [4] = test system: Aβ aggregates in brain of APPswe/PS-1 mice; assay: Thioflavine-S staining of amyloid plaques in treated APPswe/PS-1 mice; type: in vivo
# [5] = 9 h treatment, of the 86 genes analyzed
# [6] = different concentrations for 6 h, 14 DIV neurons
# [7] = young APPswe/PS-1 mice, vs controls
smiles,measurement,setting,value
"C=C1CC[C@@H]2C(C)(CO)[C@H](O)CC[C@@]2(C)C1C/C=C1/C(=O)OC[C@H]1O (stereo in doubt) [ANDRO, 3-(2-(Decahydro-6-hydroxy-5-(hydroxymethyl)-5,8a-dimethyl-2-methylenenaphthyl)ethylidene)dihydro-4-hydroxyfuran-2(3H)-one]",number of AT8-positive neurons next to amyloid deposits,"[1]; 6 month-old APPswe/PS-1 mice, circular area surrounding plaques",clear decrease in the number of AT8-positive neurons
same,total AT8-positive cells outside the circular area around the plaques,[1]; hippocampus,decrease in the number of these cells
same,Cdh-1 gene expression,Wnt target genes,differential expression
same,number of Wnt target genes specifically modulated,Wnt target genes; [5],3 genes
same,number of changed Wnt target genes shared by ANDRO and 6-BIO,Wnt target genes; [5],4 genes
same,Ets2 gene expression,Wnt target genes; after Bonferroni correction,down-regulation of Ets2 gene
same,β-catenin levels by immunofluorescence,"[2]; 5 μM for 6 h, 14 DIV neurons",increased β-catenin levels
same,time of peak accumulation of cytoplasmic and nuclear β-catenin,[2]; ANDRO 10 μM time course,9 h
same,time of maximum increase of the inhibited form of GSK-3β,"[2]; ANDRO 10 μM time course, cytoplasmic fraction",6 h
same,accumulation of β-catenin (western blot),[2]; [6],accumulation of β-catenin in a concentration-dependent manner
same,active form of GSK-3β (phosphor-Tyr-216),[2]; [6],decrease in the active form
same,inhibited form of GSK-3β (phospho-Ser-9),[2]; [6],increase in the inhibited form of the enzyme
same,escape latency,[3],significantly lower escape latency values
same,plaque size distribution (cumulative frequency),[4]; 7 month-old APPswe/PS-1 mice,shift in their distribution toward smaller plaque size
same,amyloid plaques stained with Th-S,"[4]; 7 month-old APPswe/PS-1 mice, cortex and hippocampus, vs untreated",reduction of amyloid plaques
same,amyloid deposit levels (amyloid burden area),"[4]; hippocampus or cortex, FIG. 3F (12 month-old mice per legend)",no change in amyloid deposit levels
same,immature plaques (type 1),[4]; [7],increase significantly
same,type 2a and 2c plaques in the total brain,[4]; [7],no significant differences
same,type 2b plaques,[4]; [7],significantly decreased
